# Target: human IRAK4 kinase domain (aa 154-460) (Homo sapiens (Human), UniProt Q9NWZ3)
# Experiment: IRAK4 Enzymatic DELFIA Assay, Protocol B
# Type: biochemical
# Settings: human IRAK4 kinase domain (aa 154-460), 0.6 mM ATP (KM); read-out: IRAK4 DELFIA Protocol B IC50
# Text: IRAK4 Enzymatic DELFIA Assay, Protocol B.
# Chain of human IRAK4 kinase domain (aa 154-460) (Q9NWZ3 154-460): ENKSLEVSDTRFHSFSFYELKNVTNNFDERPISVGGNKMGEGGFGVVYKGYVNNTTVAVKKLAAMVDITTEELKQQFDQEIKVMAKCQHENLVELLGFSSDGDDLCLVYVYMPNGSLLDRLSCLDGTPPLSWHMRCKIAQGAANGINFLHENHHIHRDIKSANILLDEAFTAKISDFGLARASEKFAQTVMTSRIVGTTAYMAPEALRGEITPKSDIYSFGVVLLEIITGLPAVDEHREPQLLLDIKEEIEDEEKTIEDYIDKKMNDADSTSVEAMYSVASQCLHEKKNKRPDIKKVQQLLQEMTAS
row,SMILES,IC50 [nM]
1,"CC(C)Oc1cc2c(O[C@H]3C[C@@H]4C[C@H]3CN4C(=O)CC#N)nccc2cc1C(N)=O [Example 74, 1-{[(1S,4S,5S)-2-(cyanoacetyl)-2-azabicyclo[2.2.1]hept-5-yl]oxy}-7-(propan-2-yloxy)isoquinoline-6-carboxamide]",43
2,"CC(C)Oc1cc2c(OC[C@@H]3CN(C(=O)CC#N)CCO3)nccc2cc1C(N)=O [Example 75, 1-{[(2S)-4-(cyanoacetyl)morpholin-2-yl]methoxy}-7-(propan-2-yloxy)isoquinoline-6-carboxamide]",4040
3,"CC(C)Oc1cc2c(OCC3(F)CCN(C(=O)CC#N)CC3)nccc2cc1C(N)=O [Example 76, 1-{[1-(cyanoacetyl)-4-fluoropiperidin-4-yl]methoxy}-7-(propan-2-yloxy)isoquinoline-6-carboxamide]",1720
4,"CC(C)Oc1cc2c(OC[C@@]34C[C@@H]3CN(C(=O)CC#N)C4)nccc2cc1C(N)=O [Example 77, 1-{[(1S,5S)-3-(cyanoacetyl)-3-azabicyclo[3.1.0]hex-1-yl]methoxy}-7-(propan-2-yloxy)isoquinoline-6-carboxamide]",468
5,"CC(C)Oc1cc2c(OC[C@H]3CN(C(=O)CC#N)CCO3)nccc2cc1C(N)=O [Example 78, 1-{[(2R)-4-(cyanoacetyl)morpholin-2-yl]methoxy}-7-(propan-2-yloxy)isoquinoline-6-carboxamide]",4740
6,"CC(C)Oc1cc2c(O[C@H]3CC[C@@H]4CN(C(=O)CC#N)C[C@@H]43)nccc2cc1C(N)=O [Example 79, 1-{[(3aR,4S,6aS)-2-(cyanoacetyl)octahydrocyclopenta[c]pyrrol-4-yl]oxy}-7-(propan-2-yloxy)isoquinoline-6-carboxamide]",457
7,"CC[C@H]1CN(C(=O)CC#N)C[C@@H]1COc1nccc2cc(C(N)=O)c(OC(C)C)cc12 [Example 80, 1-{[(3R,4R)-1-(cyanoacetyl)-4-ethylpyrrolidin-3-yl]methoxy}-7-(propan-2-yloxy)isoquinoline-6-carboxamide]",333
8,"CC(C)Oc1cc2c(O[C@H]3C[C@@H]4C[C@H]3CN(C(=O)CC#N)C4)nccc2cc1C(N)=O [Example 81, 1-{[(1S,5S,6S)-3-(cyanoacetyl)-3-azabicyclo[3.2.1]oct-6-yl]oxy}-7-(propan-2-yloxy)isoquinoline-6-carboxamide]",479
9,"CC(C)Oc1cc2c(OCC3(C)CCN(C(=O)CC#N)C3)nccc2cc1C(N)=O (stereo not shown) [Example 82, 1-{[1-(cyanoacetyl)-3-methylpyrrolidin-3-yl]methoxy}-7-(propan-2-yloxy)isoquinoline-6-carboxamide]",969
10,"CC(C)Oc1cc2c(OC[C@@H]3COCCN3C(=O)CC#N)nccc2cc1C(N)=O [Example 83, 1-{[(3S)-4-(cyanoacetyl)morpholin-3-yl]methoxy}-7-(propan-2-yloxy)isoquinoline-6-carboxamide]",175
11,"CO[C@H]1CN(C(=O)CC#N)C[C@@H]1COc1nccc2cc(C(N)=O)c(OC(C)C)cc12 [Example 84, 1-{[(3R,4R)-1-(cyanoacetyl)-4-methoxypyrrolidin-3-yl]methoxy}-7-(propan-2-yloxy)isoquinoline-6-carboxamide]",534
12,"CC(C)Oc1cc2c(OC[C@H]3CN(C(=O)CC#N)C[C@@H]3C)nccc2cc1C(N)=O [Example 85, 1-{[(3R,4R)-1-(cyanoacetyl)-4-methylpyrrolidin-3-yl]methoxy}-7-(propan-2-yloxy)isoquinoline-6-carboxamide]",610
13,"CC(C)Oc1cc2c(OCC3(C)CCN(C(=O)CC#N)CC3)nccc2cc1C(N)=O [Example 86, 1-{[1-(cyanoacetyl)-4-methylpiperidin-4-yl]methoxy}-7-(propan-2-yloxy)isoquinoline-6-carboxamide]",216
14,"CC(C)Oc1cc2c(OC[C@@H]3[C@H]4CN(C(=O)CC#N)C[C@@H]34)ccnc2cc1C(N)=O [Example 87, 4-{[(1R,5S,6r)-3-(cyanoacetyl)-3-azabicyclo[3.1.0]hex-6-yl]methoxy}-6-(propan-2-yloxy)quinoline-7-carboxamide]",2620
15,"CC(C)Oc1cc2c(OC[C@H]3CN(C(=O)CC#N)C[C@@H]3C)ccnc2cc1C(N)=O [Example 88, 4-{[(3R,4R)-1-(cyanoacetyl)-4-methylpyrrolidin-3-yl]methoxy}-6-(propan-2-yloxy)quinoline-7-carboxamide]",292
16,"CC(C)Oc1cc2c(O[C@@H]3C[C@H]4C[C@@H]3CN(C(=O)CC#N)C4)ccnc2cc1C(N)=O [Example 89, 4-{[(1R,5R,6R)-3-(cyanoacetyl)-3-azabicyclo[3.2.1]oct-6-yl]oxy}-6-(propan-2-yloxy)quinoline-7-carboxamide]",395
17,"CC(C)Oc1cc2c(OC[C@@]34C[C@@H]3CN(C(=O)CC#N)C4)ccnc2cc1C(N)=O [Example 90, 4-{[(1S,5S)-3-(cyanoacetyl)-3-azabicyclo[3.1.0]hex-1-yl]methoxy}-6-(propan-2-yloxy)quinoline-7-carboxamide]",438
18,"CC(C)Oc1cc2c(OCC3(C)CCN(C(=O)CC#N)CC3)ccnc2cc1C(N)=O [Example 91, 4-{[1-(cyanoacetyl)-4-methylpiperidin-4-yl]methoxy}-6-(propan-2-yloxy)quinoline-7-carboxamide]",489
19,"CC(C)Oc1cc2c(OC[C@H]3CCCN(C(=O)CC#N)C3)ccnc2cc1C(N)=O [Example 93, 4-{[(3S)-1-(cyanoacetyl)piperidin-3-yl]methoxy}-6-(propan-2-yloxy)quinoline-7-carboxamide]",1520

row,SMILES,IC50 [nM]
1,"CC(C)Oc1cc2c(OC[C@@]34C[C@@H]3CN(C(=O)CC#N)C4)ccnc2cc1C(N)=O [Example 94, 4-{[(1S,5S)-3-(cyanoacetyl)-3-azabicyclo[3.1.0]hex-1-yl]methoxy}-6-(propan-2-yloxy)quinoline-7-carboxamide]",526
2,"CC(C)Oc1cc2c(OCC3(F)CCN(C(=O)CC#N)CC3)ccnc2cc1C(N)=O [Example 95, 4-{[1-(cyanoacetyl)-4-fluoropiperidin-4-yl]methoxy}-6-(propan-2-yloxy)quinoline-7-carboxamide]",3170
3,"CO[C@H]1CN(C(=O)CC#N)C[C@@H]1COc1ccnc2cc(C(N)=O)c(OC(C)C)cc12 [Example 96, 4-{[(3R,4R)-1-(cyanoacetyl)-4-methoxypyrrolidin-3-yl]methoxy}-6-(propan-2-yloxy)quinoline-7-carboxamide]",301
4,"CC(C)Oc1cc2c(OC[C@@H]3CCCN(C(=O)CC#N)C3)ccnc2cc1C(N)=O [Example 97, 4-{[(3R)-1-(cyanoacetyl)piperidin-3-yl]methoxy}-6-(propan-2-yloxy)quinoline-7-carboxamide]",2740
5,"CC(C)Oc1cc2c(OC[C@@H]3CN(C(=O)CC#N)CCO3)ccnc2cc1C(N)=O [Example 98, 4-{[(2S)-4-(cyanoacetyl)morpholin-2-yl]methoxy}-6-(propan-2-yloxy)quinoline-7-carboxamide]",575
6,"CC(C)Oc1cc2c(OCC3CCCCN3C(=O)CC#N)ccnc2cc1C(N)=O (stereo not shown) [Example 99, 4-{[1-(cyanoacetyl)piperidin-2-yl]methoxy}-6-(propan-2-yloxy)quinoline-7-carboxamide]",524
7,"CC(C)Oc1cc2c(OCC3CCN(C(=O)CC#N)CC3)ccnc2cc1C(N)=O [Example 100, 4-{[1-(cyanoacetyl)piperidin-4-yl]methoxy}-6-(propan-2-yloxy)quinoline-7-carboxamide]",482
8,"CC(C)Oc1cc2c(O[C@H]3C[C@@H]4C[C@H]3CN4)nccc2cc1C(N)=O [Example 101, 1-[(1S,4S,5S)-2-azabicyclo[2.2.1]hept-5-yloxy]-7-(propan-2-yloxy)isoquinoline-6-carboxamide]",1180
9,"CC(C)Oc1cc2c(OC[C@@H]3CC(C)C(=O)N3)nccc2cc1C(N)=O (stereo partly drawn) [Example 107, 1-{[(2S)-4-methyl-5-oxopyrrolidin-2-yl]methoxy}-7-(propan-2-yloxy)isoquinoline-6-carboxamide]",16
10,"CC(C)Oc1cc2c(O[C@@H]3C[C@@H]4CN[C@H]3C4)nccc2cc1C(N)=O [Example 108, 1-[(1S,4R,6R)-2-azabicyclo[2.2.1]hept-6-yloxy]-7-(propan-2-yloxy)isoquinoline-6-carboxamide]",1870
11,"CC(C)Oc1cc2c(O[C@H]3C[C@@H]4CN[C@H]3C4)nccc2cc1C(N)=O [Example 109, 1-[(1S,4R,6S)-2-azabicyclo[2.2.1]hept-6-yloxy]-7-(propan-2-yloxy)isoquinoline-6-carboxamide]",1910
12,"CC(C)Oc1cc2c(OCC3CNC(=O)C3)nccc2cc1C(N)=O (stereo not shown) [Example 111, 1-[(5-oxopyrrolidin-3-yl)methoxy]-7-(propan-2-yloxy)isoquinoline-6-carboxamide]",196
13,"CC(C)Oc1cc2c(OC[C@@H]3CCNC3)cccc2cc1C(N)=O [Example 115, 3-(propan-2-yloxy)-5-[(3R)-pyrrolidin-3-ylmethoxy]naphthalene-2-carboxamide]",61
14,"CC(C)Oc1cc2c(OC[C@@H]3CCNC3)nccc2cc1C(N)=O [Example 117, 7-(propan-2-yloxy)-1-[(3R)-pyrrolidin-3-ylmethoxy]isoquinoline-6-carboxamide]",136
15,"CC(C)Oc1cc2c(OC[C@@H]3CCN3)nccc2cc1C(N)=O [Example 119, 1-[(2S)-azetidin-2-ylmethoxy]-7-(propan-2-yloxy)isoquinoline-6-carboxamide]",1430
16,"CC(C)Oc1cc2c(O[C@@H]3CC[C@H]4CC(=O)N[C@H]43)nccc2cc1C(N)=O [Example 130, 1-{[(3aS,6R,6aR)-2-oxooctahydrocyclopenta[b]pyrrol-6-yl]oxy}-7-(propan-2-yloxy)isoquinoline-6-carboxamide]",417
17,"CC(C)Oc1cc2c(OCC3CCNC(=O)C3)nccc2cc1C(N)=O (stereo not shown) [Example 138, 1-[(2-oxopiperidin-4-yl)methoxy]-7-(propan-2-yloxy)isoquinoline-6-carboxamide]",1040
18,"CC(C)Oc1cc2c(OC[C@]34CNC[C@H]3C4)nccc2cc1C(N)=O [Example 139, 1-[(1S,5S)-3-azabicyclo[3.1.0]hex-1-ylmethoxy]-7-(propan-2-yloxy)isoquinoline-6-carboxamide]",256

# — patent publication US10329302B2, “Bicyclic-fused heteroaryl or aryl compounds” (Pfizer Inc., priority 2014, dated 2019)
